Reference: publication PMC4109680, “Identification and Preclinical Pharmacology of the γ-Secretase Modulator BMS-869780” (International Journal of Alzheimer's Disease, 2014)

Key:
Aβ1-42 (H4-APPsw) = experiment: Aβ1-42 time-resolved fluorescence immunoassay in H4-APPsw cell cultures; format: cell-based, human; conditions: H4-APPsw cultures treated overnight
Experimental: H4-APPsw cell cultures were maintained on Dulbecco's modified Eagle's medium (DMEM) supplemented with L-glutamine (2 mM), fetal bovine serum (10%), and G418 (100 μg/mL). […] Aβ1-42 and Aβ1-40 assays, and Notch inhibition assays, were carried out as described previously. Mouse embryonic fibroblasts deficient in PS1 and PS2 (MEF dKO) were passaged twice per week in DMEM/F-12 medium, consisting of a 1 : 1 mixture of DMEM and F-12 nutrient mixture supplemented with 10% fetal bovine serum, penicillin, and streptomycin. For expression of human presenilin-1 in MEF dKO cells, the full length human presenilin-1 cDNA open reading frame was cloned between the BamHI and XhoI sites of the vector pcDNA5/FRT (Invitrogen), placing presenilin-1 expression under the control of the CMV promoter. The M146V mutated allele was introduced into the presenilin-1 expression construct by polymerase chain reaction using the oligonucleotide primers 5′-[…]-3′ and 5′-[…]-3 (QuikChange kit, Invitrogen). MEF dKO cultures were cotransfected with DNA constructs expressing APP-CTF, encoding the C-terminal 99 amino acids of APP [61] and either the human presenilin-1 or presenilin-1 M146V allele. Transfected cultures were incubated overnight at 37°C in 5% CO2 atmosphere and then harvested, resuspended in DMEM/F-12 medium, dispensed into 96-well culture plates, and incubated for 6 hours at 37°C in 5% CO2 atmosphere. Culture medium was then replaced with Ultraculture serum free medium (Lonza, Rockland, ME) with or without compounds at a range of concentrations and incubated overnight.
IC50 determinations for Aβ1-42 and Aβ1-40 in H4-APPsw cultures in 384-well format were determined using homogeneous time-resolved fluorescence immunoassays as previously described. The principle of these assays is illustrated in Figures 1(c) and 1(d). In other experiments using H4-APPsw cultures, Aβ was quantified by ELISA; for Aβ1-42 the combination of monoclonal antibodies was 26D6 and 565-HRP; for Aβ1-40 it was TSD and 26D6-HRP, and for Aβ1-x it was 4G8 and 26D6-HRP. In some experiments a novel 4-plex Aβ electrochemiluminescence immunoassay was used (Mesoscale Discovery catalog number N45ZA-1). Briefly, the 4-plex was carried out in 96-well format, with 4 separate spots of capture antibodies in each well. […] For Aβ in transiently transfected PS1/PS2 dKO fibroblasts, Aβ1-42 was quantified using an ELISA kit (WACO), and Aβ1-40 was quantified by ELISA as described above for H4-APPsw cultures. […] For the rat and mouse experiments illustrated in Figures 7 and 8, brain samples were prepared by solid phase extraction, and endogenous rat brain Aβ1-42 and Aβ1-40 were quantified by ELISA as previously described for wild type mice. […]

mNotch1Δ1865 = experiment: Western blot of NICD and mNotch1Δ1865 in transfected HeLa cell cultures; format: cell-based
Experimental: Inhibition of Notch signaling in cultured cells using a mouse-derived truncated Notch1 transgene, mNotch-ΔE [67], has been described in detail previously. Western blots for mNotchΔ1865 and NICD using 9E10 anti-c-myc monoclonal were carried out as previously described.
The effect of BMS-869780 on Notch processing was evaluated using transcriptional reporter assays and western blotting of NICD levels. HeLa cell cultures were transfected with mNotch1ΔE and CBF1-luciferase reporter constructs and treated with BMS-869780. In most replicates of this experiment, inhibition of luciferase reporter occurred with IC50 > 10 μM. […] To further evaluate the effect of BMS-869780 on Notch processing, western blots of cell cultures were carried out using mNotch1Δ1865, a truncated version of mNotch1ΔE that facilitates separation of NICD product from mNotch1 substrate on western blots. HeLa cell cultures were transfected with mNotch1Δ1865 and treated overnight with compounds before western blotting. […] Furthermore, the GSIs caused an increased level of mNotch1Δ1865 substrate, most likely due to inhibition of its turnover by γ-secretase, as previously noted by Blat et al..
(b) HeLa cell cultures were transfected with mNotchΔ1865, treated with compounds overnight, and cell extracts were evaluated by western blot using anti-c-myc-HRP conjugate. Lanes 1 and 9: DMSO (0.1%) vehicle. Lane 2: BMS-299897 at 1 μM. Lane 3: BMS-433796 at 0.3 μM. Lanes 4–8: BMS-869780 at 0.1, 0.3, 1, 3, and 10 μM, respectively.

Row | Compound | IC50 (Aβ1-42 (H4-APPsw); Homo sapiens) | NICD levels (mNotch1Δ1865; BMS-299897 at 1 μM, BMS-433796 at 0.3 μM) | IC50 (Aβ1-42 (H4-APPsw)) | mNotch1Δ1865 substrate levels (mNotch1Δ1865; 10 μM) | cell observation (mNotch1Δ1865; 10 μM, HeLa cultures) | NICD levels (mNotch1Δ1865; concentrations up to 3 μM)
1 | C[C@H](c1ccc(F)cc1CCCC(=O)O)N(c1cc(F)ccc1F)S(=O)(=O)c1ccc(Cl)cc1 [BMS-299897, reference compound] | 0.47 nM | greatly reduced NICD |  |  |  | 
2 | COc1cc(Nc2nc3n(n2)CCCC[C@H]3c2ccc(F)cc2)ccc1-n1cnc(Cl)c1 [BMS-869780] | 5.6 nM |  | 5.1 nM | did not increase mNotch1Δ1865 levels | detached and dead cells | no effect on NICD levels
